Experiments:
[1] = test system: HER3-ss+4aa/Gaussia Luciferase; test: Dox-Induced Her3-ss-Gluc Assay; assay type: cell-based; details: 24 hr Dox induction; 293FRT/TO cells; mean; read-out: 24 hr Dox Inducible Her3(ss + 4)Gluc 293FRT/TO: Mean IC50
Outline: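 Reporter line: Flp-In 293 T-REx, T-REx-regulated HER3-ss+4aa fused to Gaussia luciferase. Compound co-added with doxycycline after overnight plating, 37° C., 5% CO2.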

[2] = Liver Microsome Stability Assay (monkey); details: monkey liver microsomes, with NADPH, 1.0 uM compound
Experimental: (§1) Stability of a compound was assessed in the presence of liver microsomes from various sources—mouse, rat, monkey and human liver microsomes. 1.0 uM compound, 0.4% DMSO in 0.1 M Potassium Phosphate with 1.0 mg/mL liver microsomes, were incubated at 37° C. with or without 1 mM NADPH. The samples were quenched at 0, and 30 minutes.

[3] = test system: multiple myeloma cell line U266B1; test: U266 Cell Viability Assay; assay type: cell-based, human; details: Homo sapiens, U-266, 48 h, U266B1 cells, Celltiter-Glo
Outline: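 Viability is measured as luciferase signal from CellTiter-Glo following a 48-hour incubation with compound at 37° C. under 5% CO2. Where structures lack drawn stereochemistry, values refer to stereoisomer mixtures.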

[4] = test system: multiple myeloma cell line NCI-H929; test: H929 Cell Viability Assay; assay type: cell-based, human; details: Homo sapiens, NCI-H929, 48 h, NCI-H929 cells, Celltiter-Glo
Outline: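 Viability is scored by CellTiter-Glo luminescence following a 48-hour treatment at 37° C. Data for structures shown without stereochemistry refer to stereoisomer mixtures.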

[5] = test system: PD1-ss+10aa/Gaussia Luciferase; test: Dox-Induced PD1-ss-Gluc Assay; assay type: cell-based; details: 24 hr Dox induction; 293FRT/TO cells; mean; read-out: 24 hr Dox Inducible PD1ssGluc 293FRT/TO: Mean IC50
Outline: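 Stable Flp-In 293 T-REx cells carried a doxycycline-inducible construct of Gaussia luciferase fused to the PD1 signal sequence plus 10 amino acids. Cells were plated the day before, then treated with compound dilutions in DMSO/media containing doxycycline at 37 °C, 5% CO2.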

[6] = test system: IL-2-FL/Gaussia Luciferase; test: Dox Induced IL2-FL-Gluc Assay; assay type: cell-based; details: for IC50: 24 hr Dox induction, 293FRT/TO cells, mean, read-out: 24 hr Dox Inducible IL2FLGluc 293FRT/TO: Mean IC50; for 24 hr Dox Inducible IL2FLGluc 293FRT/TO: IL2/PD1: ratio of IL2FLGluc IC50 to PD1ssGluc IC50, '<=>' given where both are I.A.
Outline: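 Doxycycline induces an IL-2(1-153)–Gaussia luciferase fusion in a stable Flp-In 293 T-REx line. Compound exposure runs alongside induction at 37° C.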

[7] = Liver Microsome Stability Assay (mouse); details: mouse liver microsomes, with NADPH, 1.0 uM compound
Experimental: as §1

[8] = Liver Microsome Stability Assay (human); details: human liver microsomes, with NADPH, 1.0 uM compound
Experimental: as §1

[9] = test system: TNFα-FL/Gaussia Luciferase; test: Dox Induced TNFα-FL-Gluc Assay; assay type: cell-based; details: for IC50: 24 hr Dox induction, 293FRT/TO cells, mean, read-out: 24 hr Dox Inducible TNFaFLGluc 293FRT/TO: Mean IC50; for 24 hr Dox Inducible TNFaFLGluc 293FRT/TO: TNF/PD1: ratio of TNFaFLGluc IC50 to PD1ssGluc IC50, '<=>' given where both are I.A.
Outline: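 Doxycycline-inducible Gaussia luciferase-tagged full-length TNFα (1-233) was expressed in stable Flp-In 293 T-REx cells. Compounds were co-added with doxycycline and incubated at 37 °C, 5% CO2.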

[10] = Liver Microsome Stability Assay (rat); details: rat liver microsomes, with NADPH, 1.0 uM compound
Experimental: as §1

SMILES	IC50 [1] [nM]	Liver Microsome Stability (Multiple Species): Monkey - % Remaining after 30 min w/NADPH [2] [%]	EC50 [3] [nM]	EC50 [4] [nM]	IC50 [5] [nM]	IC50 [6] [nM]	24 hr Dox Inducible IL2FLGluc 293FRT/TO: IL2/PD1 [6]	Liver Microsome Stability (Multiple Species): Mouse - % Remaining after 30 min w/NADPH [7] [%]	Liver Microsome Stability (Multiple Species): Human - % Remaining after 30 min w/NADPH [8] [%]	IC50 [9] [nM]	24 hr Dox Inducible TNFaFLGluc 293FRT/TO: TNF/PD1 [9]	Liver Microsome Stability (Multiple Species): Rat - % Remaining after 30 min w/NADPH [10] [%]
COc1ccc(O[C@H]2CC[C@H](c3csc(NC(=O)c4cccn4Cc4ccncc4)n3)CC2)nc1 [Compound E34, N-(4-((1r,4r)-4-((5-methoxypyridin-2-yl)oxy)cyclohexyl)thiazol-2-yl)-1-(pyridin-4-ylmethyl)-1H-pyrrole-2-carboxamide]	648	3.44	7920	19600	312	2600	8.3	0.06	0.19	8140	26.1	0.26
COc1ccc(O[C@H]2CC[C@@H](c3csc(NC(=O)c4cccn4Cc4ccncc4)n3)CC2)nc1 [Compound E35, N-(4-((1s,4s)-4-((5-methoxypyridin-2-yl)oxy)cyclohexyl)thiazol-2-yl)-1-(pyridin-4-ylmethyl)-1H-pyrrole-2-carboxamide]	388	0.7	18200	8640	148	927	6.3	0.08	0.41	4830	32.6	1.2
O=C(Nc1nc(C2C3CN(c4ccccc4)CC32)cs1)c1cccn1Cc1ccncc1 (stereo not drawn) [Compound E36, N-(4-(3-phenyl-3-azabicyclo[3.1.0]hexan-6-yl)thiazol-2-yl)-1-(pyridin-4-ylmethyl)-1H-pyrrole-2-carboxamide]	890	0.83	13800	> 25000	284	1710	6	27.8	1.63	5070	17.8	1.49
O=C(Nc1nc(C2Cc3cccnc3C2)cs1)c1cccn1Cc1ccncc1 (stereo not drawn) [Compound E37, N-(4-(6,7-dihydro-5H-cyclopenta[b]pyridin-6-yl)thiazol-2-yl)-1-(pyridin-4-ylmethyl)-1H-pyrrole-2-carboxamide]	8040	0.08	> 25000	> 25000	2900	16500	5.7	0.18	0.08	> 25000	>8.63	0.34
COc1ccc(O[C@H]2CC[C@H](c3csc(NC(=O)c4cccn4Cc4ccncc4)n3)C2)nc1 [Compound E38, N-(4-((1S,3S)-3-((5-methoxypyridin-2-yl)oxy)cyclopentyl)thiazol-2-yl)-1-(pyridin-4-ylmethyl)-1H-pyrrole-2-carboxamide]	1120	0.13	23000	23800	493	1870	3.8	0.25	0.1	5280	10.7	0.33
COc1ccc(O[C@@H]2CCC[C@H](c3csc(NC(=O)c4cccn4Cc4ccncc4)n3)C2)nc1 [Compound E39, N-(4-((1S,3R)-3-((5-methoxypyridin-2-yl)oxy)cyclohexyl)thiazol-2-yl)-1-(pyridin-4-ylmethyl)-1H-pyrrole-2-carboxamide]	344	0.19	13900	8430	159	449	2.8	0.23	0.34	1650	10.3	1.17
CC(=O)N1CCC(O[C@@H]2C[C@H](c3csc(NC(=O)c4cccn4Cc4ccncc4)n3)N(c3ccccc3)C2)CC1 [Compound E40, N-(4-((2R,4R)-4-((1-acetylpiperidin-4-yl)oxy)-1-phenylpyrrolidin-2-yl)thiazol-2-yl)-1-(pyridin-4-ylmethyl)-1H-pyrrole-2-carboxamide]	645	0.1	> 25000	6730	320	771	2.4	2.75	0.43	2050	6.42	1.43
COc1ccc(O[C@H]2CCC[C@H](c3csc(NC(=O)c4cccn4Cc4ccncc4)n3)C2)nc1 [Compound E41, N-(4-((1S,3S)-3-((5-methoxypyridin-2-yl)oxy)cyclohexyl)thiazol-2-yl)-1-(pyridin-4-ylmethyl)-1H-pyrrole-2-carboxamide]	570	0.34	14400	7740	301	538	1.8	0.41	0.33	1560	5.2	0.61
